According to PubChem BioAssay (NCI):
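Cultured in 96-well plates, cells were exposed to test compound for 48 hours across five concentrations. TGI marks complete inhibition of growth.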

How the values were obtained:
Test in all cases: growth of human tumour cells (NCI), 48 h
[1] = tested on: 786-0 renal
[2] = tested on: A498 renal
[3] = tested on: A549 NSCLC
[4] = tested on: ACHN renal
[5] = tested on: BT-549 breast
[6] = tested on: CAKI-1 renal
[7] = tested on: CCRF-CEM leukemia
[8] = tested on: COLO 205 colon
[9] = tested on: DU-145 prostate
[10] = tested on: EKVX NSCLC
[11] = tested on: HCC-2998 colon
[12] = tested on: HCT-116 colon
[13] = tested on: HCT-15 colon
[14] = tested on: HL-60(TB) leukemia
[15] = tested on: HOP-62 NSCLC
[16] = tested on: HS 578T breast
[17] = tested on: HT29 colon
[18] = tested on: IGROV1 ovarian
[19] = tested on: K-562 leukemia
[20] = tested on: KM12 colon
[21] = tested on: M14 melanoma
[22] = tested on: MALME-3M melanoma
[23] = tested on: MCF7 breast
[24] = tested on: MDA-MB-231 breast
[25] = tested on: MDA-MB-435
[26] = tested on: MDA-N
[27] = tested on: MOLT-4 leukemia
[28] = tested on: NCI-H226 lung
[29] = tested on: NCI-H23 lung
[30] = tested on: NCI-H460 lung
[31] = tested on: NCI-H522 lung
[32] = tested on: OVCAR-8 ovarian
[33] = tested on: PC-3 prostate
[34] = tested on: RPMI-8226 leukemia
[35] = tested on: SF-268 CNS
[36] = tested on: SF-295 CNS
[37] = tested on: SF-539 CNS
[38] = tested on: SK-MEL-28 melanoma
[39] = tested on: SK-MEL-5 melanoma
[40] = tested on: SK-OV-3 ovarian
[41] = tested on: SN12C renal
[42] = tested on: SNB-19 CNS
[43] = tested on: SNB-75 CNS
[44] = tested on: SR leukemia
[45] = tested on: SW-620 colon
[46] = tested on: T-47D breast
[47] = tested on: TK-10 renal
[48] = tested on: UACC-257 melanoma
[49] = tested on: UACC-62 melanoma
[50] = tested on: UO-31 renal
[51] = tested on: HOP-92 NSCLC
[52] = tested on: LOX IMVI melanoma
[53] = tested on: NCI/ADR-RES ovarian
[54] = tested on: OVCAR-3 ovarian
[55] = tested on: OVCAR-4 ovarian
[56] = tested on: OVCAR-5 ovarian
[57] = tested on: SK-MEL-2 melanoma
[58] = tested on: U251 CNS
[59] = tested on: RXF 393 renal

Compound: Cc1cccc(NS(=O)(=O)c2ccc3c(c2)OCCOCCOCCOCCO3)c1
- TGI [1]: > 100 µM
- TGI [2]: > 100 µM
- TGI [3]: > 100 µM
- TGI [4]: > 100 µM
- TGI [5]: > 100 µM
- TGI [6]: > 100 µM
- TGI [7]: > 100 µM
- TGI [8]: > 100 µM
- TGI [9]: > 100 µM
- TGI [10]: > 100 µM
- TGI [11]: > 100 µM
- TGI [12]: > 100 µM
- TGI [13]: > 100 µM
- TGI [14]: > 100 µM
- TGI [15]: > 100 µM
- TGI [16]: > 100 µM
- TGI [17]: > 100 µM
- TGI [18]: > 100 µM
- TGI [19]: > 100 µM
- TGI [20]: > 100 µM
- TGI [21]: > 100 µM
- TGI [22]: > 100 µM
- TGI [23]: > 100 µM
- TGI [24]: > 100 µM
- TGI [25]: > 100 µM
- TGI [26]: > 100 µM
- TGI [27]: > 100 µM
- TGI [28]: > 100 µM
- TGI [29]: > 100 µM
- TGI [30]: > 100 µM
- TGI [31]: 65.5 µM
- TGI [32]: > 100 µM
- TGI [33]: > 100 µM
- TGI [34]: > 100 µM
- TGI [35]: > 100 µM
- TGI [36]: > 100 µM
- TGI [37]: > 100 µM
- TGI [38]: > 100 µM
- TGI [39]: > 100 µM
- TGI [40]: > 100 µM
- TGI [41]: > 100 µM
- TGI [42]: > 100 µM
- TGI [43]: > 100 µM
- TGI [44]: > 100 µM
- TGI [45]: > 100 µM
- TGI [46]: > 100 µM
- TGI [47]: > 100 µM
- TGI [48]: > 100 µM
- TGI [49]: > 100 µM
- TGI [50]: > 100 µM

Compound: Cc1ccc(S(=O)(=O)N/N=C2/C3CCC(C3)C2c2ccccc2)cc1 (stereo unspecified)
- TGI [1]: > 100 µM
- TGI [3]: > 100 µM
- TGI [4]: > 100 µM
- TGI [5]: > 100 µM
- TGI [6]: > 100 µM
- TGI [7]: > 100 µM
- TGI [8]: > 100 µM
- TGI [9]: > 100 µM
- TGI [10]: > 100 µM
- TGI [12]: > 100 µM
- TGI [13]: > 100 µM
- TGI [14]: > 100 µM
- TGI [15]: > 100 µM
- TGI [51]: > 100 µM
- TGI [16]: > 100 µM
- TGI [17]: > 100 µM
- TGI [18]: > 100 µM
- TGI [19]: > 100 µM
- TGI [20]: > 100 µM
- TGI [52]: > 100 µM
- TGI [21]: > 100 µM
- TGI [22]: > 100 µM
- TGI [23]: > 100 µM
- TGI [25]: > 100 µM
- TGI [26]: > 100 µM
- TGI [27]: > 100 µM
- TGI [28]: > 100 µM
- TGI [29]: > 100 µM
- TGI [30]: > 100 µM
- TGI [31]: > 100 µM
- TGI [53]: > 100 µM
- TGI [54]: > 100 µM
- TGI [55]: > 100 µM
- TGI [56]: > 100 µM
- TGI [32]: > 100 µM
- TGI [33]: > 100 µM
- TGI [34]: > 100 µM
- TGI [35]: > 100 µM
- TGI [36]: > 100 µM
- TGI [57]: > 100 µM
- TGI [38]: > 100 µM
- TGI [39]: > 100 µM
- TGI [40]: > 100 µM
- TGI [41]: > 100 µM
- TGI [42]: > 100 µM
- TGI [43]: > 100 µM
- TGI [44]: > 100 µM
- TGI [45]: > 100 µM
- TGI [46]: > 100 µM
- TGI [47]: > 100 µM
- TGI [58]: > 100 µM
- TGI [48]: > 100 µM
- TGI [49]: > 100 µM
- TGI [50]: > 100 µM

Compound: CCOC(=O)NC(NCC(O)c1ccccc1)(C(F)(F)F)C(F)(F)F (stereo unspecified)
- TGI [2]: > 100 µM
- TGI [3]: > 100 µM
- TGI [4]: > 100 µM
- TGI [5]: > 100 µM
- TGI [6]: > 100 µM
- TGI [7]: > 100 µM
- TGI [9]: > 100 µM
- TGI [10]: > 100 µM
- TGI [11]: > 100 µM
- TGI [12]: > 100 µM
- TGI [13]: > 100 µM
- TGI [14]: > 100 µM
- TGI [15]: > 100 µM
- TGI [51]: > 100 µM
- TGI [16]: > 100 µM
- TGI [17]: > 100 µM
- TGI [18]: > 100 µM
- TGI [19]: > 100 µM
- TGI [20]: > 100 µM
- TGI [52]: > 100 µM
- TGI [21]: > 100 µM
- TGI [22]: > 100 µM
- TGI [23]: > 100 µM
- TGI [24]: > 100 µM
- TGI [25]: > 100 µM
- TGI [26]: > 100 µM
- TGI [27]: > 100 µM
- TGI [28]: > 100 µM
- TGI [29]: > 100 µM
- TGI [30]: > 100 µM
- TGI [31]: > 100 µM
- TGI [54]: > 100 µM
- TGI [56]: > 100 µM
- TGI [34]: > 100 µM
- TGI [59]: > 100 µM
- TGI [35]: > 100 µM
- TGI [37]: > 100 µM
- TGI [57]: > 100 µM
- TGI [38]: > 100 µM
- TGI [39]: > 100 µM
- TGI [40]: > 100 µM
- TGI [41]: > 100 µM
- TGI [42]: > 100 µM
- TGI [43]: > 100 µM
- TGI [44]: > 100 µM
- TGI [45]: > 100 µM
- TGI [46]: > 100 µM
- TGI [47]: > 100 µM
- TGI [58]: > 100 µM
- TGI [48]: > 100 µM
- TGI [49]: > 100 µM
- TGI [50]: > 100 µM
